The results in this text go back to ChEMBL document CHEMBL1201862, “PubChem BioAssay data set” (2004).

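A five-concentration, 48-hour dose response in 96-well plates underlies each endpoint, interpolated linearly between surrounding concentrations. GI50 = concentration required for 50% inhibition of growth.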 The source made the active and inactive calls. Cut-off read from the data, not from the text of the source: active = GI50 up to about 1.1 µM and inactive = higher.

Assay in all cases: NCI-60 cell line screen, 48 h
Experiment [1] deals with 786-0.
The test system of experiment [2] is A549.
In experiment [3] the test system is ACHN.
Experiment [4] relates to K562.
The subject of experiment [5] is M14.
The subject of experiment [6] is Malme-3M.
In experiment [7] the test system is NCI-H23.
In experiment [8] the test system is OVCAR-3.
Experiment [9] concerns OVCAR-8.
Experiment [10] has as its system SF-539.
Experiment [11] relates to SK-MEL-28.
Experiment [12] deals with SK-OV-3.
In experiment [13] the test system is U-251.
For experiment [14], the system named is UACC-62.
For experiment [15], the system named is HCT-15.
The subject of experiment [16] is OVCAR-5.

For `CCc1cccc(C)c1NC(=O)C(=O)Cc1nc2ccccc2s1`, the GI50 in [1], in [2], in experiment [3], in experiment [4], in experiment [5] and in [6] was > 100 µM (inactive) each time. Also, the GI50 in experiment [7], in experiment [8], in experiment [9], in experiment [10], in experiment [11] and in [12] was > 100 µM (inactive) throughout. For the same molecule, the GI50 in experiment [13] and in [14] was > 100 µM (inactive) each time.
As for `COc1ccc2oc3c(OC)c(OC)c(OC)cc3c(=O)c2c1`, the GI50 in experiment [1] is > 100 µM (inactive); in experiment [2], > 100 µM (inactive); in experiment [3], > 100 µM (inactive); in experiment [15], over 100 µM; in experiment [4], > 100 µM (inactive); in experiment [5], > 100 µM (inactive). Besides, the GI50 in experiment [6] was > 100 µM (inactive); in experiment [7], > 100 µM (inactive); in experiment [16] it was > 100 µM (inactive); in experiment [9] it was > 100 µM (inactive); in [10], 40.4 µM (inactive); in experiment [11], > 100 µM (inactive). Besides, the GI50 is > 100 µM (inactive) in [12], 71.6 µM (inactive) in experiment [13] and > 100 µM (inactive) in [14].
As to `c1cncc(C2N3CCCCC3[C@@H]3c4[nH]c5ccccc5c4CCN23)c1` (stereo partly specified), the GI50 in [1] is > 100 µM (inactive); in experiment [2], > 100 µM (inactive); in experiment [3], > 100 µM (inactive); in [15], over 100 µM; in experiment [4], > 100 µM (inactive); in experiment [5], > 100 µM (inactive). The GI50 in experiment [7], in experiment [8], in experiment [16], in [9], in experiment [10] and in [11] was > 100 µM (inactive) each time. The GI50 is > 100 µM (inactive) in experiment [12], > 100 µM (inactive) in [13] and 47.6 µM (inactive) in experiment [14].
As to `N/N=C1\C(=O)N(C2CCCCCC2)C(=O)C1C(=O)NC1CCCCCC1` (stereo unspecified), the GI50 in experiment [1] was 29.6 µM (inactive); in [2] it was 49.1 µM (inactive); in experiment [3], 42.2 µM (inactive); in experiment [15] it was 30 µM; in experiment [4], 30.3 µM (inactive); in experiment [5], 35 µM (inactive). For the same molecule, the GI50 in [6] is 24.7 µM (inactive); in experiment [7] it was 22.4 µM (inactive); in experiment [8], 32.4 µM (inactive); in experiment [16], 39.3 µM (inactive); in experiment [9], 39.3 µM (inactive); in experiment [10], 24.7 µM (inactive). The GI50 in experiment [11] was > 10 µM (inactive); in experiment [13], 15.8 µM (inactive); in experiment [14], 18.8 µM (inactive).
As to `O=C1/C=C(/c2ccc(O)cc2)[C@@H](O)Cc2ccc(O)cc2O1`, the GI50 in experiment [1] is > 100 µM (inactive); in experiment [2], 56.1 µM (inactive); in experiment [3], 92.7 µM (inactive); in experiment [15], over 100 µM; in experiment [5], > 100 µM (inactive); in experiment [6], > 100 µM (inactive). Besides, the GI50 in experiment [7] is > 100 µM (inactive); in [8], > 100 µM (inactive); in experiment [16], > 100 µM (inactive); in experiment [9], > 100 µM (inactive); in experiment [10] it was 52.5 µM (inactive); in [12], 35.7 µM (inactive). Further, the GI50 was > 100 µM (inactive) in experiment [13] and 31 µM (inactive) in experiment [14].
`Cc1cc(N(CCC#N)CCC#N)ccc1/C=C(\NC(=O)/C=C/c1ccccc1)NC(=O)Nc1ccc(Cl)cc1`: the GI50 is 51.6 µM (inactive) in [1]; 32.5 µM (inactive) in experiment [2]; 7.28 µM (inactive) in experiment [3]; over 100 µM in [15]; 2.13 µM (inactive) in experiment [4]; > 100 µM (inactive) in [5]. In addition, the GI50 in [6] is 73.6 µM (inactive); in [7], 22.2 µM (inactive); in experiment [8], 80.5 µM (inactive); in [16], > 100 µM (inactive); in experiment [9] it was 80 µM (inactive); in [10], 26 µM (inactive). The GI50 in experiment [11] is > 100 µM (inactive); in experiment [13], 14.3 µM (inactive); in [14] it was 8.83 µM (inactive).
Regarding `C/C(CN1C(=O)c2ccccc2C1=O)=N\NS(=O)(=O)c1ccc(C)cc1`, the GI50 in experiment [1] is > 100 µM (inactive); in experiment [2], > 100 µM (inactive); in experiment [3] it was > 100 µM (inactive); in [15], over 100 µM; in experiment [4] it was > 100 µM (inactive); in experiment [5] it was > 100 µM (inactive). Moreover, the GI50 in experiment [6], in [7], in [8], in experiment [16], in experiment [9] and in experiment [10] was > 100 µM (inactive) throughout. For the same molecule, the GI50 in experiment [12], in experiment [13] and in experiment [14] was > 100 µM (inactive) throughout.
For the molecule `CN(Cc1ccccc1)C(=O)c1ccccc1C(=O)O`, the GI50 in experiment [1] is > 100 µM (inactive); in experiment [2], > 100 µM (inactive); in experiment [3], > 100 µM (inactive); in [15], over 100 µM; in experiment [4], > 100 µM (inactive); in experiment [5], > 100 µM (inactive). The GI50 in experiment [6], in experiment [7], in experiment [8], in experiment [16], in experiment [9] and in experiment [10] was > 100 µM (inactive) in each case. Moreover, the GI50 in experiment [12] and in [13] was > 100 µM (inactive) each time.
`CCCOc1ccc(/C=C\c2cc(OC)c(OC)c(OC)c2)cc1`: the GI50 was > 100 µM (inactive) in experiment [1]; 40.7 µM (inactive) in experiment [2]; 73.3 µM (inactive) in [3]; 43.6 µM in experiment [15]; 23.8 µM (inactive) in experiment [4]; 53.3 µM (inactive) in [5]. Further, the GI50 in experiment [6] is 62.2 µM (inactive); in experiment [8], > 100 µM (inactive); in [16] it was 10.1 µM (inactive); in experiment [9], > 100 µM (inactive); in [10], 74.3 µM (inactive); in experiment [11], 63.4 µM (inactive). Moreover, the GI50 is 68.9 µM (inactive) in [13] and 41.4 µM (inactive) in [14].
For `C#CC1(O)CCC2C3CCc4cc(Oc5nc(F)nc(-c6c7ccccc7c7sc8ccccc8n67)n5)ccc4C3CC[C@@]21C` (stereo partly specified), the GI50 in experiment [1] was > 100 µM (inactive); in experiment [2] it was > 100 µM (inactive); in [3], > 100 µM (inactive); in experiment [15], over 100 µM; in [4] it was > 100 µM (inactive); in experiment [5] it was 26.1 µM (inactive). Further, the GI50 was > 100 µM (inactive) in [6]; 33.3 µM (inactive) in experiment [7]; > 100 µM (inactive) in experiment [8]; > 100 µM (inactive) in experiment [16]; > 100 µM (inactive) in experiment [9]; > 100 µM (inactive) in experiment [10]. For the same molecule, the GI50 in experiment [11] is > 100 µM (inactive); in experiment [13] it was 75.7 µM (inactive); in experiment [14], > 100 µM (inactive).
